Test results taken from US20210330606A1, “GLUCOSE CONSUMPTION ACCELERATOR AND GLYCOLYSIS ACCELERATOR” (SHINKO SANGYO Co., Ltd., priority 2018, published 2021).

Tests used:
[1] = test system: Rat-derived fibroblasts (Py-3Y1-S2, subculture strain); test: Glucose consumption of rat-derived fibroblasts (relative value, control = 100); format: cell-based
Text: As drugs, 2-amino-1-cyclohexylethanol (Matrix Biochemicals), 2-aminoethanol (Tokyo Chemical Industry Co., Ltd.), 1-amino-2-propanol (Wako Pure Chemical Industries, Ltd.), 2-amino-1-phenylethanol (Tokyo Chemical Industry Co., Ltd.), 1, 3-bis[tris(hydroxymethyl)-methylamino]propane (Tokyo Chemical Industry Co., Ltd.), N-cyclohexylethanolamine (Tokyo Chemical Industry Co., Ltd.), diethanolamine (Wako Pure Chemical Industries, Ltd.), diethylamine (Wako Pure Chemical Industries, Ltd.), dipropylamine (Tokyo Chemical Industry Co., Ltd.), HEPES sodium salt (MP Biomedicals), metoprolol tartrate (Tokyo Chemical Industry Co., Ltd.), morpholine (Wako Pure Chemical Co., Ltd.), octopamine (MP Biomedicals), propylamine (Tokyo Chemical Industry Co., Ltd.), triethylamine (Wako Pure Chemical Co., Ltd.), timolol maleate (Wako Pure Chemical Industries, Ltd.) and tris(hydroxymethyl)aminomethane (Wako Pure Chemical Industries, Ltd.) were used. Each drug was dissolved in distilled water to prepare a sample.
In the culture, DMEM (Nissui Pharmaceutical Co., Ltd.) was used as a culture medium. […] As a control of the drug, the culture was performed in the same manner except that distilled water to which the drug was not added was added to the culture solution instead of the sample.
After the addition of the drug, the glucose concentration of each of the culture solutions was measured immediately after the start of the culture and after the completion of the culture. The glucose concentration was measured using a glucose assay kit (Waco). Then, the glucose concentration after the completion of the culture was divided by the glucose concentration immediately after the start of the culture (5.6 mmol per liter) to calculate the glucose consumption.
The fibroblasts were cultured. […] Streptozotocin, alloxan, and nicotinamide are drugs all known to produce symptoms of diabetes when administered to the body.
Next, samples of streptozotocin, alloxan, and nicotinamide plus 2-amino-1-phenylethanol (2-A-1-P) were prepared in the same manner. The concentration of 2-A-1-P was 1 mg/ml. The relative value of the glucose consumption was calculated in the same manner.
The fibroblasts were cultured.
The concentration of 2-A-1-P was 0.5 mg/ml. The relative value of the glucose consumption was calculated in the same manner.

[2] = test system: Py-3Y1-S2, TE-13, VERO and HepG2 cells; test: Lactate concentration after 24 to 48 hours culture, mean over four cell types (Example 8); format: cell-based, rat, human, African green monkey; settings: drug 0.5 mg/ml, mean of five experiments in four cell types
Experimental: (§1) After the addition of the drug, the culture solution was diluted so that the weight ratio of the culture solution to distilled water was 1:19, and the lactate concentration of the diluted culture solution was measured. The lactate concentration was measured using a lactate assay kit (product name: Lactate Assay Kit-WST, product of Dojindo Laboratories).
First, a sample of 2-amino-1-cyclohexylethanol (2-amino-1-cyclohexyl EOH) was prepared in the same manner as in Example 1. In addition to the rat-derived fibroblasts (Py-3Y1-S2, subculture line), human-derived esophageal cancer cells (TE-13, subculture line), African green monkey-derived kidney epithelial cells (VERO, subculture line), and human-derived hepatocellular cancer cells (HepG2, subculture line) were used and cultured under the same conditions as in Example 1. […] Thereafter, the culture solutions were further cultured for 24 to 48 hours. The culture time after the addition of the sample was set to the same condition for each cell. As a control 1, the culture was performed in the same manner except that distilled water to which the drug was not added was added to the culture solution instead of the sample. […] Then, the lactate concentration in each sample was measured in the same manner as in Example 6. […]

[3] = test system: Py-3Y1-S2, TE-13, VERO and HepG2 cells; test: Lactate concentration after 2 to 3 days culture, lactate metabolism, mean over four cell types (Example 9); format: cell-based, rat, human, African green monkey
Experimental: as §1
First, samples of 2-amino-1-cyclohexylethanol (2-amino-1-cyclohexyl EOH) and 2-amino-1-phenylethanol (2-amino-1-phenyl EOH) were prepared in the same manner as in Example 1. Four types of cells were used as in Example 8, and each of the cells was cultured under the same conditions as in Example 1. […] Thereafter, the culture time was lengthened to 2 to 3 days (48 to 72 hours) compared to Example 8. As a control 1, the culture was performed in the same manner except that distilled water to which the drug was not added was added to the culture solution instead of the sample. As a control 2, the culture was performed in the same manner as the […] except that a sample of biguanide prepared in the same manner as in Example 1 was added to the culture solution instead of the sample. Then, the lactate concentration in each sample was measured in the same manner as in Example 6. Each of the four cells was used for a total of four experiments.

[4] = test system: rat-derived liver cancer cells (Ry121B, subculture line); settings: drug 1 mg/ml, control = 100
[5] = test system: Rat-derived fibroblasts (Py-3Y1-S2, subculture strain); test: Lactate concentration in culture solution of fibroblasts (relative value, control = 100); format: cell-based; settings: drug 1 mg/ml, control = 100 (FIG. 7A)
Experimental: (§2) First, samples of 2-amino-1-cyclohexylethanol and 2-amino-1-phenylethanol were prepared in the same manner as in Example 1. The fibroblasts and the liver cancer cells were cultured under the same conditions as in Examples 1 and 5. […] As a control, the culture was performed in the same manner except that distilled water to which the drug was not added was added to the culture solution instead of the sample.
as §1

[6] = test system: rat-derived liver cancer cells (Ry121B, subculture line); test: Lactate concentration in culture solution of liver cancer cells (relative value, control = 100); format: cell-based; settings: drug 1 mg/ml, control = 100 (FIG. 7B)
Experimental: as §2, §1

[7] = fibroblasts, drug 0.5 mg/ml, 12 to 24 hours, control = 100 (FIG. 1A, 2A)
[8] = fibroblasts, drug 1 mg/ml, 12 to 24 hours, control = 100 (FIG. 1B, 2B)
[9] = Example 3, fibroblasts, drug alone 1 mg/ml, control = 100

| Molecule | relative value of glucose consumption [1, 7] | relative value of glucose consumption [1, 8] | also measured |
| --- | --- | --- | --- |
| O=S(=O)([O-])CCN1CCN(CCO)CC1.[Na+] [HEPES sodium salt] | significantly increased glucose consumption | significantly increased glucose consumption |  |
| OCCNC1CCCCC1 [N-cyclohexylethanolamine] | significantly increased glucose consumption | significantly increased glucose consumption |  |
| CN(N=O)C(=O)N[C@H]1C(O)O[C@H](CO)[C@@H](O)[C@@H]1O (mixture of isomers) [streptozotocin, reference compound] |  |  | relative value of glucose consumption [1, 9]: about 90 |
| concanavalin A [reference compound] |  |  | relative value of glucose consumption ([1]; Example 4, fibroblasts, ConA alone 100 μg/ml): about 120 |
| CCN(CC)CC [triethylamine] | significantly increased glucose consumption | significantly increased glucose consumption |  |
| CC(O)CN (stereo not shown) [1-amino-2-propanol] | significantly increased glucose consumption |  |  |
| NCC(O)C1CCCCC1 (stereo not shown) [2-amino-1-cyclohexylethanol] | significantly increased glucose consumption | significantly increased glucose consumption | lactate concentration in the culture solution [2]: 9.35 mmol/L; relative value of glucose consumption ([1]; Example 2, fibroblasts, drug 0.1 mg/ml, control = 100): about 120; relative value of glucose consumption ([1]; Example 2, fibroblasts, drug 0.25 mg/ml, control = 100): about 130; relative value of glucose consumption ([1]; Example 2, fibroblasts, drug 0.5 mg/ml, control = 100): about 150; lactate concentration in the culture solution compared to control 1 ([3]; drug 0.5 mg/ml, 2 to 3 days (48 to 72 hours) culture, mean of four experiments): equivalent to that of control 1; relative value of glucose consumption [4]: about 145; relative value of lactate concentration [5]: about 145; relative value of lactate concentration [6]: about 140 |
| tris(hydroxymethyl)aminomethane | significantly increased glucose consumption | significantly increased glucose consumption |  |
| CCCNCCC [dipropylamine] | significantly increased glucose consumption | significantly increased glucose consumption |  |
| CC(C)(C)NC[C@H](O)COc1nsnc1N1CCOCC1.O=C(O)/C=C\C(=O)O [timolol maleate, reference compound] | significantly increased glucose consumption | significantly increased glucose consumption |  |
| O=C1NC(=O)C(=O)C(=O)N1 [alloxan, reference compound] |  |  | relative value of glucose consumption [1, 9]: about 70 |
| N=C(N)NC(=N)N [biguanide, reference compound] |  |  | lactate concentration in the culture solution [2]: increased the lactate concentration; lactate concentration relative to Control 1 ([3]; 2 to 3 days culture after addition of biguanide, P<0.05): about 3.5 times |
| OCCNCCO [diethanolamine] | significantly increased glucose consumption | significantly increased glucose consumption |  |
| COCCc1ccc(OCC(O)CNC(C)C)cc1.COCCc1ccc(OCC(O)CNC(C)C)cc1.O=C(O)C(O)C(O)C(=O)O (stereo not shown) [metoprolol tartrate, reference compound] | significantly increased glucose consumption | significantly increased glucose consumption |  |
| OCC(CO)(CO)NCCCNC(CO)(CO)CO [1,3-bis[tris(hydroxymethyl)methylamino]propane] |  | significantly increased glucose consumption |  |
| CCCN [propylamine] | significantly increased glucose consumption | significantly increased glucose consumption |  |
| CCNCC [diethylamine] | significantly increased glucose consumption | significantly increased glucose consumption |  |
| NCCO [2-aminoethanol] | significantly increased glucose consumption | significantly increased glucose consumption |  |
| NC(=O)c1cccnc1 [nicotinamide, reference compound] |  |  | relative value of glucose consumption [1, 9]: about 85 |
| C1COCCN1 [morpholine] | significantly increased glucose consumption | significantly increased glucose consumption |  |
| [O]=[V](=[O])[O][V](=[O])=[O] [V2O5, reference compound] |  |  | relative value of glucose consumption ([1]; Example 4, fibroblasts, drug alone, vanadium final concentration 1.0 mg/ml (V2O5 not printed separately)): about 115 |
